Results on 63 molecules are retold here after PubChem BioAssay AID489035 (Sanford-Burnham Center for Chemical Genomics, 2010).

Calls of active or inactive are those of the source. How the calls were made is not given here.

By IC50 is commonly meant the point on the concentration scale where inhibition reaches its midpoint.

The test system of the assay is Jurkat NF-kB reporter, TCR-induced, luciferase luminescence. In words: T-cell NF-kB luciferase reporter inhibition – Jurkat cells, luminescence, dose response (AID 489035). (In a reporter assay the amount or activity of a reporter protein is the signal.)
With `Cc1ccc(C)c(NS(=O)(=O)c2ccc(-c3cnc(C4CC4)o3)cc2)c1`, the IC50 was 13.8 µM.

With `CCOC(=O)c1[nH]c(C)c(C(=O)OCC(=O)NC(C)c2ccc(F)cc2)c1C` (stereo not drawn), the IC50 is > 80 µM (inactive).

With `CCC(C)(C)c1ccc(OCCCC[n+]2cccc(C)c2C)c(C(C)(C)CC)c1`, the IC50 is 4.76 µM.

`c1cc2c(cc1C1=NNC(=NC3CC3)SC1)OCCO2`: the IC50 was 0.26 µM.

Turning to `CCCCC(=O)NC(c1ccc(Cl)cc1Cl)c1ccc2cccnc2c1O` (stereo not drawn), the IC50 was 9.87 µM.

Consider `COc1ccc([C@H]2CC(=O)C=C(c3c(OC)cccc3OC)C2)cc1`, for which the IC50 is > 80 µM (inactive).

Take `Clc1ccc(CSc2nncn2-c2ccc3c(c2)OCCO3)cc1`: the IC50 is > 80 µM (inactive).

In the case of `COc1ccc(OC)c(NS(=O)(=O)c2ccc(N3CCCC3=O)cc2)c1`, the IC50 is > 80 µM (inactive).

For `O=C(N=Nc1c(O)[nH]c2ccc(Br)cc12)c1ccccc1-n1cccc1`, the IC50 is 50.2 µM (inactive).

With `COC(=O)Nc1ccc(S(=O)(=O)N2CCCc3ccccc32)cc1`, the IC50 is > 80 µM (inactive).

Regarding `COc1ccc(/C=N/NC(=O)COc2ccccc2-c2ccccc2)cc1`, the IC50 was 37.9 µM (inactive).

As to `COc1cc(C(=O)N/N=C/c2cc([N+](=O)[O-])cs2)cc(OC)c1OC`, the IC50 was > 80 µM (inactive).

For the molecule `N#C/C(=C\c1ccc(OCc2ccc(C(=O)O)cc2)cc1)C(=O)N1CCOCC1`, the IC50 was 1.55 µM.

For `CC(=O)NC(c1ccc(C(C)C)cc1)c1ccc2cccnc2c1O` (stereo not drawn), the IC50 was 3.06 µM.

Consider `COc1ccc(Br)cc1/C(C)=N/NC1=NCCN1`, for which the IC50 was > 80 µM (inactive).

Consider `COc1ccc(COC(=O)c2cc([N+](=O)[O-])ccc2N2CCOCC2)cc1F`, for which the IC50 is > 80 µM (inactive).

For `COc1ccccc1C(=O)Nc1nc2ccccc2s1`, the IC50 is 0.77 µM.

Regarding `COc1ccc(C)cc1NS(=O)(=O)c1ccc(-c2cnc(C3CC3)o2)cc1`, the IC50 is > 80 µM (inactive).

For `COc1ccc(C(=O)c2ccc(N(C)C)cc2)c(OC)c1`, the IC50 is > 80 µM (inactive).

For `CC(=O)O[C@H]1C(=O)[C@@]2(C)[C@H]([C@H](OC(=O)c3ccccc3)[C@]3(O)C[C@H](OC(=O)[C@H](O)[C@@H](NC(=O)c4ccccc4)c4ccccc4)C(C)=C1C3(C)C)[C@]1(OC(C)=O)CO[C@@H]1C[C@@H]2O`, the IC50 was 11 µM.

As for `COC(=O)c1nn(-c2ccc3c(c2)CCN3C(C)=O)cc1O`, the IC50 is 1.14 µM.

As to `O=C(NNc1ccnc2cc(Cl)ccc12)C1CCCCC1`, the IC50 was > 80 µM (inactive).

As for `C(=N\Nc1nc2ccccc2s1)/c1ccccn1`, the IC50 is 0.84 µM.

On to `COc1ccc(NS(=O)(=O)c2ccc(-c3cnc(C4CC4)o3)cc2)cc1OC`, for which the IC50 is > 80 µM (inactive).

`Cc1oc(-c2ccc(Cl)cc2)nc1CS(=O)CC(=O)NCCCN1CCN(Cc2ccccc2)CC1` (stereo not drawn): the IC50 is 26.4 µM (inactive).

For the molecule `O=C1c2cccc3cc([N+](=O)[O-])cc(c23)C(=O)N1CCN1CCCC1`, the IC50 is > 80 µM (inactive).

Take `CC(=O)c1c(C)[nH]c(C(=O)OCC(=O)Nc2ccc(C)cc2[N+](=O)[O-])c1C`: the IC50 was > 80 µM (inactive).

As for `Cc1ccc(S(=O)(=O)NCc2ccncc2)cc1C`, the IC50 is > 80 µM (inactive).

`CCOC(=O)N/N=C/c1c(C)nn(-c2cccc(C(F)(F)F)c2)c1Cl`: the IC50 was > 80 µM (inactive).

For the molecule `O=C(Nc1ccc(N2CCCCC2)cc1)c1ccccn1`, the IC50 was 0.46 µM.

For the molecule `CCCCCCCCn1c2c(c(=N)c3ccccc31)CCC2`, the IC50 was 3.43 µM.

With `O=C(Sc1cccc2cccnc12)c1ccccc1Br`, the IC50 was 3.21 µM.

With `O=[N+]([O-])c1ccc(O)c(/C=N/Nc2ccc(Cl)nn2)c1`, the IC50 was 54 µM (inactive).

On to `Cc1ccc(S(=O)(=O)Cc2ccc(C(=O)N3CCN(c4cccc(C)c4C)CC3)o2)cc1`, for which the IC50 was 15.8 µM.

Regarding `Cc1cc(C)nc(SCC(=O)Nc2ccnc3ccccc23)n1`, the IC50 is > 80 µM (inactive).

For the molecule `COc1ccc(C2=NOC(C(=O)NCc3ccc(F)cc3)C2)cc1OC` (stereo not drawn), the IC50 is > 80 µM (inactive).

Turning to `COC(=O)c1cn(NC(=O)c2cc([N+](=O)[O-])ccc2F)c(=O)c2ccccc12`, the IC50 is 0.46 µM.

In the case of `Cc1ccc2c(c1)COc1c3ccc(C(=O)O)cc3nn1-2`, the IC50 is > 80 µM (inactive).

In the case of `Cc1ccc2[nH]c3c(c2c1)CCCC3NC(=O)CCl` (stereo not drawn), the IC50 is 0.32 µM.

For the molecule `COC(=O)C1=C(CN2CCCc3ccccc32)NC(=O)NC1c1ccc(F)cc1` (stereo not drawn), the IC50 is 1.01 µM.

Consider `CC(C)(C)OC(=O)NCCCCCc1cn(CC(=O)NCCCCCCCCCCC(=O)N2CCN(C(=O)OC(C)(C)C)CC2)nn1`, for which the IC50 is > 80 µM (inactive).

On to `COC(=O)Nc1ccc(S(=O)(=O)N2c3ccccc3CCC2C)cc1` (stereo not drawn), for which the IC50 was 26.6 µM (inactive).

Regarding `CCOc1cccc(-c2nnc3n2N=C(c2cc(OC)ccc2OC)CS3)c1`, the IC50 is > 80 µM (inactive).

On to `CCN(CC)c1ccc(/C=N/NC(=O)c2cccc(S(=O)(=O)Nc3ccccc3OC)c2)c(O)c1`, for which the IC50 is 3.37 µM.

For `CCOC(=O)C(C)Oc1cccc2c(=O)n(CC(=O)NCc3ccccc3)ccc12` (stereo not drawn), the IC50 was > 80 µM (inactive).

On to `Cc1ccc(COC(=O)c2cc([N+](=O)[O-])ccc2N2CCOCC2)cc1`, for which the IC50 is 49 µM (inactive).

With `O=C1CC(c2cccc(Br)c2)c2cc3c(cc2N1)CCC3` (stereo not drawn), the IC50 was 63.9 µM (inactive).

As for `CCCCc1ccc(NC(=O)c2ccc(N(C)S(C)(=O)=O)cc2)cc1`, the IC50 was less than 0.16 µM.

Consider `O=C(c1ccccc1)c1cc([N+](=O)[O-])ccc1N1CCOCC1`, for which the IC50 is > 80 µM (inactive).

`COc1ccc(NC(=O)/C(Cl)=C(/Cl)S(=O)Cc2ccc(Cl)cc2)cn1` (stereo not drawn): the IC50 is 0.27 µM.

For the molecule `CCn1nc(C)c(CNC(=O)c2ccc(OC3CCN(Cc4ccccn4)CC3)cc2)c1C`, the IC50 was > 80 µM (inactive).

As to `O=C(CNC(=O)c1ccco1)N=Nc1c(O)n(CCc2ccccc2)c2ccccc12`, the IC50 is > 80 µM (inactive).

Regarding `CC(C)(C)c1ccc(C(=O)O/N=C(\N)c2ccccc2)cc1`, the IC50 is 2.31 µM.

Turning to `CCCCCCCCC[n+]1cccc2c3ccccc3ccc21`, the IC50 was 8.65 µM.

`COc1cc(-c2c(-c3cc(OC)c(OC)c(OC)c3)noc2C)ccc1F`: the IC50 was 31.6 µM (inactive).

Consider `Cc1ccc(Oc2ccc(OCC(=O)Nc3ccncc3)cc2)cc1`, for which the IC50 is 19.3 µM.

On to `CNC[C@@H](CC1CCCCC1)NC[C@H](CC(C)C)NCCc1cccc(C(F)(F)F)c1`, for which the IC50 was 5 µM.

Turning to `Cc1noc(C)c1CSc1nc2ccccc2c(=O)n1-c1ccccc1`, the IC50 is 30.8 µM (inactive).

Take `CCOc1ccccc1C1CC(=O)Nc2cc3c(cc21)OCO3` (stereo not drawn): the IC50 is 67.1 µM (inactive).

With `COc1cc(Cn2c(-c3nonc3N)nc3ccccc32)ccc1C`, the IC50 was > 80 µM (inactive).

As to `O=C(NCc1cccs1)C1CCN(c2ccc(S(=O)(=O)N3CCOCC3)cc2Cl)CC1`, the IC50 was 25.6 µM (inactive).

In the case of `O=C(N/N=C\c1c(O)ccc2ccccc12)c1ccc(S(=O)(=O)N2CCCCC2)cc1`, the IC50 was 0.98 µM.

For `Cc1cccc(N2CCN(C(=O)c3ccc(S(=O)(=O)N(C)c4ccccc4)cc3)CC2)c1C`, the IC50 is > 80 µM (inactive).
